The values that follow come from patent publication US20220151935A1, “USE OF AMINO ACID BASED NUTRIENTS AND PHARMACEUTICAL COMPOSITION CONTAINING THE SAME” (priority 2018, published 2022).

Data set [1] deals with pancreatic cancer cells PANC-1. As to the kind of experiment: Tumor inhibition in nude mice bearing pancreatic cancer cells PANC-1. Format: in vivo. To be noted: for Tumor inhibition rate of intraperitoneal injection / Tumor inhibition rate of intratumoral injection: Table 3, avg tumor volume 105 mm^3, 100 μl/mouse every 3 days x3, next day after last dose; for Tumor inhibition rate: Table 4, avg tumor volume 136 mm^3, intratumoral every 3 days x3, ≤150 μl, next day. As to the method:
(§1) They were injected intraperitoneally and intratumorally.
After anatomy, the tumor weight was measured and the tumor inhibition rate was calculated.

Data set [2] deals with human liver cancer cells (HepG2). As to the kind of experiment: Tumor weight and tumor inhibition in nude mice bearing HepG2. To be noted: for Intratumoral injection Tumor inhibition rate / Intratumoral injection Tumor weight / Tumor inhibition rate of intraperitoneal injection: 5th day after last dose. Format: in vivo. The protocol:
(§2) One of the core characteristics of tumors is heterogeneity. […] The corresponding negative control was normal saline.
as §1
The negative control group was given normal saline. The compositions of the study drug are as shown in the table below: 4 types and concentrations of amino acid based nutrient single drugs (X % amino acid based nutrients), 18 types and concentrations of ineffective absorption drugs (Y % ineffective absorption drugs), 24 compositions comprising various types and concentrations of amino acid based nutrients and ineffectively absorption drugs (X % amino acid based nutrients/Y % ineffectively absorption drugs).
The negative control was normal saline. The compositions of 16 study drugs, as shown in the table below, comprise: a 5-fluorouracil single drug of 4 varying concentrations (X % 5-fluorouracil), and an amino acid based nutrient with 5 varying concentrations (Y % amino acid based nutrient), 7 compositions consisting of 5-fluorouracil of varying concentrations and an amino acid based nutrient of varying concentrations (X % 5-fluorouracil/Y % amino acid based nutrient). […] The dose at each time was: 5-fluorouracil 50 mg/kg, glutathione ≤1 g/kg, and an injection volume was ≤150 μl/mouse.
The negative control was normal saline, the positive control was 1% 5-fluorouracil, and the study drug was 1% methylene blue/10% amino acid based nutrient composition (the type of the amino acid based nutrient is variable). The amino acid based nutrients in the compositions used in study groups 1-13 were: arginine, glycine, cysteine hydrochloride, valine, threonine, proline, histidine hydrochloride, phenylalanine, lysine, leucine, alanine, glutathione, serine, and the study drug used in the study group 14 was 1% methylene blue/5% arginine/5% glycine.

Data set [3] deals with human head and neck cancer cells (Fμda). As to the kind of experiment: Tumor inhibition in nude mice bearing human head and neck cancer cells (Fμda). It counts as in vivo. The following applies: Example 2; intratumoral 100 μl/mouse every 3 days x3; next day; avg tumor volume 109 mm^3.
Source text: as §2

A short description of data set [4]: pH of the drug composition. It counts as physicochemical. To be noted: Table 14; aqueous solution.
The subject of data set [5] is human lung cancer cells (A549). Description: Tumor inhibition in nude mice bearing human lung cancer cells (A549). The following applies: Example 2; intratumoral 100 μl/mouse every 3 days x3; next day; avg tumor volume 83 mm^3.
Procedure: (§3) The tumor growth inhibition rate (abbreviated as tumor inhibition rate in the present invention) is calculated through the following equation:
(§4) wherein TW is an average tumor weight of a study group; CW is an average tumor weight of a negative control group.
(§5) In the following experiments, the nude mice bearing human tumor cells and successfully modeled were randomly divided into 1 negative control group and 4 study groups (groups A, B, C, and D). The corresponding negative control was normal saline. […] Each group was injected intratumorally, once every 3 days, for a total of 3 times, each time with 100 μl/mouse. On the next day after the administration of drugs was ended, the animals were euthanized, the tumor weight was measured after anatomy, and the tumor inhibition rate was calculated from the respective negative control group.
In this research experiment, successfully modeled nude mice bearing human lung cancer cells (A549) (with an average tumor volume of 83 mm^3) were randomly divided into a negative control group and 4 study groups (groups A, B, C, and D).
Data set [6] concerns human ovary cancer cells (PA1). Description: Tumor inhibition in nude mice bearing human ovary cancer cells (PA1). To be noted: Example 2; intratumoral 100 μl/mouse every 3 days x3; next day; avg tumor volume 104 mm^3.
Procedure: as §3, §4
(§6) In the following experiments, the nude mice bearing human tumor cells and successfully modeled were randomly divided into 1 negative control group and 4 study groups (groups A, B, C, and D). The corresponding negative control was normal saline. The four study drugs were 20% arginine, 3% glutamic hydrochloride, 10% alanyl-glutamine, and 10% glutathione. Each group was injected intratumorally, once every 3 days, for a total of 3 times, each time with 100 μl/mouse. On the next day after the administration of drugs was ended, the animals were euthanized, the tumor weight was measured after anatomy, and the tumor inhibition rate was calculated from the respective negative control group.
(§7) In this series of experiments, successfully modeled nude mice bearing human cancer cells were randomly divided into 1 negative control group and 5 study groups (groups A, B, C, D and E). […] Each group was injected intratumorally, once every 3 days, for a total of 3 times, each time with 150 μl/mouse. On the next day after the administration was ended, the animals were euthanized, the tumor weight was measured after anatomy, and the tumor inhibition rate was calculated from the respective negative control group.
(§8) In this series of experiments, successfully modeled nude mice bearing human cancer cells were randomly divided into 1 negative control group and 6 study groups (groups A, B, C, D, E and F). […] Each group was injected intratumorally, once every 3 days, for a total of 3 times, each time with 100 μl/mouse. On the next day after the administration was ended, the animals were euthanized, the tumor weight was measured after anatomy, and the tumor inhibition rate was calculated from the respective negative control group.
(§9) In this series of experiments, successfully modeled nude mice bearing human cancer cells were randomly divided into 1 negative control group and 3 study groups. […] Each group was injected intratumorally, once every 3 days, for a total of 3 times, each time with 150 μl/mouse.
Data set [7] deals with human thyroid cancer cells (SW579). Description: Tumor inhibition in nude mice bearing human thyroid cancer cells (SW579). The following applies: Example 2; intratumoral 100 μl/mouse every 3 days x3; next day; avg tumor volume 103 mm^3.
Procedure: as §3, §4, §6, §7, §8, §9
Data set [8] concerns human stomach cancer cells (BGC823). Description: Tumor inhibition in nude mice bearing human stomach cancer cells (BGC823). The following applies: Example 2; intratumoral 100 μl/mouse every 3 days x3; next day; avg tumor volume 85 mm^3.
Procedure: as §3, §4, §5
In this research experiment, successfully modeled nude mice bearing human stomach cancer cells (BGC823) (with an average tumor volume of 85 mm^3) were randomly divided into a negative control group and 4 study groups (groups A, B, C, and D).
The subject of data set [9] is human breast cancer cells (MDA-MB231). As to the kind of experiment: Tumor inhibition in nude mice bearing human breast cancer cells (MDA-MB231). The following applies: Example 2; intratumoral 100 μl/mouse every 3 days x3; next day; avg tumor volume 71 mm^3.
Procedure: as §3, §4, §6
In this research experiment, successfully modeled nude mice bearing human breast cancer cells (MDA-MB231) (with an average tumor volume of 71 mm^3) were randomly divided into a negative control group and 4 study groups (groups A, B, C, and D).
Each group was injected intratumorally, once every 3 days, for a total of 3 times, each time with 150 μl/mouse. On the next day after the administration was ended, the animals were euthanized, the tumor weight was measured after anatomy, and the tumor inhibition rate was calculated from the respective negative control group.
Each group was injected intratumorally, once every 3 days, for a total of 3 times, each time with 100 μl/mouse. On the next day after the administration was ended, the animals were euthanized, the tumor weight was measured after anatomy, and the tumor inhibition rate was calculated from the respective negative control group.
The subject of data set [10] is human nasopharynx cancer cells (CNE1). As to the kind of experiment: Tumor inhibition in nude mice bearing human nasopharynx cancer cells (CNE1). The following applies: Example 2; intratumoral 100 μl/mouse every 3 days x3; next day; avg tumor volume 78 mm^3.
Procedure: as §3, §4, §5
In this research experiment, successfully modeled nude mice bearing human nasopharynx cancer cells (CNE1) (with an average tumor volume of 78 mm^3) were randomly divided into a negative control group and 4 study groups (groups A, B, C, and D).
The test system of data set [11] is human prostate cancer cells (LNCaP/AR). As to the kind of experiment: Tumor inhibition in nude mice bearing human prostate cancer cells (LNCaP/AR). To be noted: Example 2; intratumoral 100 μl/mouse every 3 days x3; next day; avg tumor volume 91 mm^3.
Procedure: as §3, §4, §6
In this research experiment, successfully modeled nude mice bearing human prostate cancer cells (LNCaP/AR) (with an average tumor volume of 91 mm^3) were randomly divided into a negative control group and 4 study groups (groups A, B, C, and D).
as §7, §8
In this series of experiments, successfully modeled nude mice bearing human cancer cells were randomly divided into 1 negative control group and 3 study groups. […] Each group was injected intratumorally, once every 3 days, for a total of 3 times, each time with 150 μl/mouse. On the fifth day after the administration was ended, the animals were euthanized, the tumor weight was measured after anatomy, and the tumor inhibition rate was calculated from the respective negative control group.
In data set [12] the test system is breast cancer 4T1 cells. Description: Tumor weight and tumor inhibition in BALB/c mice bearing breast cancer 4T1 cells.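 Note: subcutaneous grafts in the right axilla, tumors excised and weighed after euthanasia, inhibition rate derived from group mean tumor weight versus the negative control group.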
Procedure: In the following examples, unless otherwise specified, animal tests of subcutaneous transplantation tumors were performed in accordance with test guidelines issued by a drug administration authority. […] The subcutaneous transplantation was carried out according to a conventional method for subcutaneous inoculation of tumor cells. […] Items to be observed, measured and analyzed in the experiments included general status, body weight, food intake, tumor volume, tumor weight, thymus weight, spleen weight, and the like.
as §3, §4
The effects of the co-use of drugs (including efficacy and safety) can theoretically be based on the judgment of q:
q=actual combined effect/theoretical expected effect of simple addition.
When q=1, the actual combined effect meets the theoretical expectation, showing an additive effect; when q<1, the actual combined effect is weaker than the theoretical expectation, showing an antagonistic effect; and when q>1, the actual combined effect exceeds the theoretical expectation, showing a synergic effect. Unless otherwise specified, single-use efficacy of A or B (denoted as EA and EB respectively) and the actual combined efficacy of A/B (denoted as EA+B) are both tumor inhibition rates.
In one experiment, the test animal was a BALB/c mouse, the modeling cells were breast cancer 4T1 cells, and the transplantation tumor was modeled at 1×10^6 cells/mouse under the skin of the animal's right axilla. […] The experimental groups were divided into 1 negative control group (group 0) and 13 study groups (groups 1-13). They were all injected intratumorally. […] Each group was administered once every 3 days for a total of 3 times, each time at an injection dose of 150 μl//mouse. During the administration, general state of the animals and the degree of necrosis of normal tissues around the tumor after the administration were observed. On the 5th day after the administration was ended, the animals were euthanized, and the tumor weight was measured after anatomy to the animals. The tumor inhibition rate was calculated from the negative control group of each administration mode.
In another experiment, the test animal was a BALB/c mouse, the modeling cells were breast cancer 4T1 cells, and the transplantation tumor was modeled at 1×10^6 cells/mouse under the skin of the animal's right axilla. […] Each group was administered by intratumoral injection once every 3 days for a total of 3 times, each time at an injection dose of 150 μl/mouse. On the 5th day after the administration was ended, the animals were euthanized, and the tumor weight was measured after anatomy to the animals. The tumor inhibition rate was calculated from the negative control group.
In another experiment, the test animal was BALB/c mice, the modeling cells were breast cancer 4T1 cells, and the transplantation tumor was modeled at 1×10^6 cells/mouse under the skin of the animal's right axilla. […] Each group was administered by intratumoral injection once every 3 days for a total of 3 times, each time at an injection dose of 150 μl/mouse. On the 5th day after the administration was ended, the animals were euthanized, and the tumor weight was measured after anatomy to the animals. The tumor inhibition rate was calculated from the negative control group.
In another experiment, the test animal was a BALB/c mouse, the modeling cells were breast cancer 4T1 cells, and the transplantation tumor under the skin of the animal's right axilla was modeled at 1×10^6 cells/mouse.
The subject of data set [13] is HepG2. Description: Intratumoral tissue destruction, histological observation of HepG2 tumors. To be noted: Table 7; intratumoral injection, once, ≤130 μl/mouse; next day; scale 0 = blank control, 5 = 5% acetic acid.
Procedure: The negative control group was given normal saline, and the compositions and injection methods of the 5 study drugs are shown in the table below. […] Each group was administered once, with an injection dose of ≤130 μl/mouse. On the next day after the administration was ended, the animals were euthanized, and the tumor was dissected for histological observation.
The negative control groups were given normal saline, and the compositions and injection methods of the 5 study drugs are shown in the table below. […] Each group was administered once, with an injection dose of ≤130 μl/mouse. On the next day after the administration was ended, the animals were euthanized, and the tumor was dissected for histological observation.
Data set [14] relates to hyperthyroidism. Description: Hyperthyroidism model in rats (levothyroxine). The following applies: first experiment, 25th day after administration, RIA.
Procedure: Taking hyperthyroidism as a model, the model was built with levothyroxine (intraperitoneal injection, with a dose of 50 μg/100 g body weight, for consecutive 10 days). […] Administration was started on the day of grouping. The negative control was a normal saline spray, and the positive control was methimazole. […] Both the negative control group and the study group were injected once every 1 days in the swollen area, with 150 μl/mouse each time, for a total of 8 times.
The observed, measured and analyzed items in the experiment included serological examination and thyroid pathological examination on the day of administration and the 16th day after the administration, in addition to the regular food intake, body weight, and general state. The serological examination employed radioimmunoassay (RIA) to determine concentrations of serum T3, T4 and thyroid-stimulating hormone (TSH). The pathological examination observed thyroid morphology, follicular morphology, epithelial cell morphology, and interlobular fibrous tissue morphology.
The nature of data set [15]: Saturated concentration of 5-fluorouracil. It counts as physicochemical. To be noted: aqueous solution.
The subject of data set [16] is pancreatic cancer cells PANC-1. To be noted: once, 150 μl, next day, vs blank group.
Procedure: Both groups A and B were administered the drugs once, with 150 μl each time. The next day after the administration of drug was ended, the 3 groups of animals were euthanized, and the tumors were dissected for histological observation.
Setting [17] is: Example 2, intratumoral 100 μl/mouse every 3 days x3, next day, avg tumor volume 81 mm^3.
The mark [18] stands for this setting: Table 8, avg tumor volume 175 mm^3, ≤150 μl/mouse every 3 days x3.
Where [19] appears, read: Table 11, avg tumor volume 164 mm^3, intratumoral every 3 days x3, ≤150 μl, fifth day after last dose.
[20] abbreviates: Table 16, avg tumor volume 169 mm^3, intratumoral every 3 days x3, ≤150 μl/mouse, 5th day.
[21] abbreviates: Table 10, avg tumor volume 336 mm^3, 150 μl/mouse every 3 days x3, 5th day after last dose.
The mark [22] stands for this setting: Table 12, avg tumor volume 317 mm^3, intratumoral 150 μl/mouse every 3 days x3, 5th day.
The mark [23] stands for this setting: Table 14, avg tumor volume 325 mm^3, intratumoral 150 μl/mouse every 3 days x3, 5th day.
[24] abbreviates: Table 17, avg tumor volume 317 mm^3, intratumoral 150 μl/mouse every 3 days x3, fifth day.
[25] abbreviates: Table 6, avg tumor volume 153 mm^3, ≤120 μl/mouse every 3 days x3.

Read-outs that look alike come from different tables or passages of the source. Marks after values point to notes of the source that are not given here.

In the case of `N=C(N)NCCC[C@H](N)C(=O)O` [20% arginine, L-arginine], the “Tumor inhibition rate of intraperitoneal injection” value in data set [1] is listed as 56%; in [2] (setting [18]), 5%. Besides, the “Tumor inhibition rate of intratumoral injection” value in data set [1] worked out at 5%. Besides, the Tumor inhibition rate is on record as 61% in data set [1]; 63% in data set [2] (setting [17]); “(60%)” in [2] (setting [19]); “(61%)**” in data set [2] (setting [20]); 56% in data set [3]; 53% in [5]. In addition, the Tumor inhibition rate in data set [6] turned out to be 56%; in data set [7] it was 62%; in [8], 52%; in data set [9], 55%; in [10], 63%; in data set [11] it was 55%. The Tumor inhibition rate in data set [12] (setting [22]) is on record as 27%; in data set [12] (setting [23]), 28%; in data set [12] (setting [24]), 34%. Further, the “Intratumoral injection Tumor inhibition rate” value stood at 61% in [2] (setting [18]) and 33% in data set [12] (setting [21]). The “Intratumoral injection Tumor weight” value in [2] (setting [18]) is 0.99 ± 0.21 g; in data set [12] (setting [21]), 0.86 ± 0.23 g. The “Drug pH” value in data set [4] is listed as 10.8. Besides, the entries for the “Tumor weight (x ± s)” value in data set [12] (setting [22]) and in [12] (setting [23]) were 1.72 g and 1.75 ± 0.29 g, respectively. Moreover, in data set [12] (setting [24]), the Tumor weight was found to be 1.03 ± 0.29 g.
With `CC(=O)O` [5% acetic acid, acetic acid, reference compound], in data set [2] (setting [19]), the Tumor inhibition rate result is given as “(71%)”. Besides, the Intratumoral tissue destruction in [13] is reported as 5.
Regarding `Cn1cc[nH]c1=S` [Thiamazole, methimazole], the “serum T3” value in data set [14] (negative control 1.9±0.1, blank 0.8±0.1) is on record as 1.1±0.1. For the same compound, in data set [14] (negative control 171.2±9.3, blank 39.6±3.1), the “serum T4” value is on record as 66.3±3.6.
For `O=c1[nH]cc(F)c(=O)[nH]1` [5-fluorouracil], in data set [15], the “saturated concentration (Canti)” value was “about 1.5%”.
With `N[C@@H](CCC(=O)N[C@@H](CS)C(=O)NCC(=O)O)C(=O)O` [10% glutathione, Reduced glutathione], the “Tumor inhibition rate of intraperitoneal injection” value in [1] came to 51%; in data set [2] (setting [25]), 3%; in data set [2] (setting [18]), 1%. The “Tumor inhibition rate of intratumoral injection” value in data set [1] is given as 3%. The Tumor inhibition rate in [1] is on record as 57%; in data set [2] (setting [17]) it was 61%; in data set [2] (setting [20]), “(62%)”; in data set [3], 53%; in data set [5], 59%; in [6] it was 67%. Besides, the Tumor inhibition rate in data set [7] was 61%; in data set [8], 59%; in [9] it was 64%; in data set [10], 61%; in [11] it was 65%. The “Intratumoral injection Tumor inhibition rate” value in data set [2] (setting [25]) is reported as 58%; in data set [2] (setting [18]), 59%. Also, the “Intratumoral injection Tumor weight” value in [2] (setting [25]) stood at 0.97 ± 0.24 g; in data set [2] (setting [18]) it was 1.04 ± 0.23 g. Besides, the “histological observation of the tumor” value is “no obvious difference between group A and the blank group” in data set [16] (intraperitoneal injection); “obvious intratumoral tissue destruction” in data set [16] (intratumoral injection). This compound also registered an Intratumoral tissue destruction in data set [13] of 1.
